The record followed here is ChEMBL document CHEMBL1130989, “Design and synthesis of bio-isosteres of thymidine triphosphate” (Bioorg Med Chem Lett, 1998).

The target in assay [1] is Human immunodeficiency virus type 1 reverse transcriptase (Human immunodeficiency virus 1, UniProt Q72547). The experiment in a line: Concentration required for no significant inhibitory activity against HIV-1 reverse transcriptase.
Assay [2] relates to CCRF-CEM. The experiment in a line: Dose required for no significant anti-HIV activity against HIV-2 in human lymphocyte CEM cells. Format: functional, cell-based.
In assay [3] the test system is CCRF-CEM. The experiment in a line: Dose required for no significant anti-HIV activity against HIV-1 in human lymphocyte CEM cells. Format: functional, cell-based.

Where only a bound is given, the exact number is not on record here.

One may read the IC50 as the point on the concentration scale where inhibition reaches its midpoint. High values mean a need for much substance, low ones inhibition by little substance. As usually defined, the EC50 is the concentration that produces a half-maximal response. High values mean weaker potency, low ones greater potency. For `Cc1cn(C2C=CC(CNC(=O)CC3(C)CC(O[Si](c4ccccc4)(c4ccccc4)C(C)(C)C)CN3C(=O)OC(C)(C)C)O2)c(=O)[nH]c1=O` (stereo not given), in assay [1], the IC50 was more than 500 µM. The EC50 with CCRF-CEM [2] and in the assay on CCRF-CEM [3] was more than 200 µM in each case.
`Cc1cn(C2CC(O)C(CNC(=O)CC3(C)CC(O)CN3)O2)c(=O)[nH]c1=O` (stereo not given): the IC50 in assay [1] was more than 500 µM. Moreover, the EC50 in the assay with CCRF-CEM [2] and in the assay on CCRF-CEM [3] was more than 200 µM in each case.
Regarding `Cc1cn(C2C=CC(CNC(=O)CC3(C)CC(O)CN3)O2)c(=O)[nH]c1=O` (stereo not given), the IC50 in assay [1] was more than 500 µM. Moreover, the EC50 in the assay on CCRF-CEM [2] and in the assay with CCRF-CEM [3] was more than 200 µM throughout.
In turn, `Cc1cn(C2C=CC(CNC(=O)CC3(C)CC(O)CN3C(=O)OC(C)(C)C)O2)c(=O)[nH]c1=O` (stereo not given) gave an IC50 in assay [1] of more than 500 µM. For the same molecule, the EC50 in the assay with CCRF-CEM [2] and in the assay on CCRF-CEM [3] was more than 200 µM in each case.
Turning to `Cc1cn(C2CC(O[Si](C)(C)C(C)(C)C)C(CNC(=O)CC3(C)CC(O[Si](c4ccccc4)(c4ccccc4)C(C)(C)C)CN3C(=O)OC(C)(C)C)O2)c(=O)[nH]c1=O` (stereo not given), the IC50 in assay [1] was more than 500 µM. In addition, the half-maximal effective concentration (EC50) in the assay on CCRF-CEM [2] and with CCRF-CEM [3] was more than 200 µM throughout.
